# Experimental data as given in US9732075B2, “Benzimidazole-proline derivatives” (IDORSIA PHARMACEUTICALS LTD, priority 2012, dated 2017).
# Columns and labels:
# human orexin-2 receptor = human orexin-2 receptor (Homo sapiens (Human), UniProt O43614); assay: In vitro assay: intracellular calcium measurements (FLIPR), antagonistic activity; type: cell-based; details: CHO cells expressing human orexin-2 receptor, orexin-A agonist, geometric mean, read-out: IC50 Ox2
# Procedure, shortened: (§1)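 Orexin-A-evoked calcium rise (3 nM final, roughly EC70) was recorded with fluo-4 in recombinant CHO cells, human receptor subtype 1 or 2.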
# human orexin-1 receptor = human orexin-1 receptor (Homo sapiens (Human), UniProt O43613); assay: as above; type: cell-based; details: CHO cells expressing human orexin-1 receptor, orexin-A agonist, geometric mean, read-out: IC50 Ox1
# Procedure, shortened: as §1
# Chain of human orexin-1 receptor (O43613 whole entry): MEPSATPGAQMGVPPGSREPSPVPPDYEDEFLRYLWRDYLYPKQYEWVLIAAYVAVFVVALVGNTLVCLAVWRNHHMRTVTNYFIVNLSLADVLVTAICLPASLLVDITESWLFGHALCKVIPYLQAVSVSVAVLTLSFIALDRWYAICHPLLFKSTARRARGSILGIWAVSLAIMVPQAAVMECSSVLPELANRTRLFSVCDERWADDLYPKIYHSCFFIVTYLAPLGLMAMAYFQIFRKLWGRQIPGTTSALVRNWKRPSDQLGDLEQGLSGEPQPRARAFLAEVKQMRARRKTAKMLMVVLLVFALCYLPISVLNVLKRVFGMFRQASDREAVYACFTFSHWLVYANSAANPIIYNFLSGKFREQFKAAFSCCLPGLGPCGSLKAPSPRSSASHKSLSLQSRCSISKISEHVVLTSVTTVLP
# Chain of human orexin-2 receptor (O43614 whole entry): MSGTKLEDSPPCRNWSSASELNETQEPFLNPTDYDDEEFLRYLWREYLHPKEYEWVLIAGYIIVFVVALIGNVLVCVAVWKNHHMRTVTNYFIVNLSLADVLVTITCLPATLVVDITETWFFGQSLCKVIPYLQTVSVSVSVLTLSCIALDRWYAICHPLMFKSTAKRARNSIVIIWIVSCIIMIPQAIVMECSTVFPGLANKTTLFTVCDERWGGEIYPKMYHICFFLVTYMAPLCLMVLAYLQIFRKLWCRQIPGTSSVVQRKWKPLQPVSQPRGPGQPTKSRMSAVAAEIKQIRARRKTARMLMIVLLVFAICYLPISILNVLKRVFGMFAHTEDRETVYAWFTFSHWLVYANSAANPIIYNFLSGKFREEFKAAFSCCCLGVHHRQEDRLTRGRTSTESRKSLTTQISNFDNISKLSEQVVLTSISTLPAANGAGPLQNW
SMILES,IC50 (human orexin-2 receptor) [nM],IC50 (human orexin-1 receptor) [nM]
Cc1nc(C(=O)N2CC[C@H](C)[C@H]2c2nc3cc(Cl)ccc3[nH]2)c(-c2cccc(Cl)c2)s1 [Ex. 4.11],4060,10
Cc1cc2[nH]c([C@@H]3[C@@H](C)CCN3C(=O)c3c(F)cccc3-c3ncccn3)nc2cc1Cl [Ex. 4.133],359,25
CCc1ccc(-c2sc(C)nc2C(=O)N2CCC[C@H]2c2nc3cccc(SC)c3[nH]2)cc1 [Ex. 1.69],31,37
CO[C@@H]1C[C@@H](c2nc3ccc(Cl)c(C)c3[nH]2)N(C(=O)c2nc(C)sc2-c2cccc(C)c2)C1 [Ex. 3.32],5,0.9
Cc1ccc2[nH]c([C@@H]3[C@@H](C)CCN3C(=O)c3nc(C)sc3-c3ccccc3)nc2c1 [Ex. 4.5],3190,29
Cc1nc(C(=O)N2CCC[C@H]2c2nc3cccc(Cl)c3[nH]2)c(-c2cccc(Cl)c2)s1 [Ex. 1.14],32,34
Cc1nc(C(=O)N2C[C@H](F)C[C@H]2c2nc3c(C)cccc3[nH]2)c(-c2cccc(Cl)c2)s1 [Ex. 2.9],18,17
CO[C@H]1CN(C(=O)c2cc(F)ccc2-n2nccn2)C(C)(c2nc3c(C)c(Cl)ccc3[nH]2)C1 (stereo partly shown) [Ex. 3.43],13,10
CSc1cccc2nc([C@@H]3CCCN3C(=O)c3nc(C4CC4)sc3-c3ccc(C)cc3)[nH]c12 [Ex. 1.68],8,7
Cc1nc(C(=O)N2CCC[C@H]2c2nc3c(O)cccc3[nH]2)c(-c2cccc(Cl)c2)s1 [Ex. 1.12],344,273
Cc1nc(C(=O)N2CC[C@H](C)[C@H]2c2nc3cc(C(F)(F)F)ccc3[nH]2)c(-c2cc(F)cc(F)c2)s1 [Ex. 4.148],3180,7
Cc1nc(C(=O)N2CCCC2c2nc3cc(OC(F)(F)F)ccc3[nH]2)c(-c2ccccc2)s1 (stereo not shown) [Ex. 1.132],614,90
Cc1nc(C(=O)N2CCCC2c2nc3cc(F)c(Br)cc3[nH]2)c(-c2cccc(Cl)c2)s1 (stereo not shown) [Ex. 1.112],289,69
Cc1nc(C(=O)N2CC[C@H](C)[C@H]2c2nc3ccccc3[nH]2)c(-c2cccc(Cl)c2)s1 [Ex. 4.6],3890,29
CO[C@H]1C[C@@H](c2nc3c(C)c(Cl)ccc3[nH]2)N(C(=O)c2nc(C)sc2-c2ccccc2)C1 [Ex. 3.5],74,109
CO[C@@H]1C[C@@H](c2nc3ccc(Cl)c(C)c3[nH]2)N(C(=O)c2cc(C(F)(F)F)ccc2-n2nccn2)C1 [Ex. 3.17],51,368

SMILES,IC50 (human orexin-2 receptor) [nM],IC50 (human orexin-1 receptor) [nM]
COc1cc2nc([C@@H]3[C@@H](C)CCN3C(=O)c3ccccc3-c3ccc(C)cc3)[nH]c2cc1OC [Ex. 4.58],2170,66
COc1ccc(-n2nccn2)c(C(=O)N2CC[C@H](C)[C@H]2c2nc3cc(C)c(C)cc3[nH]2)c1 [Ex. 4.84],58,8
CSc1ccc2[nH]c([C@@H]3CCCN3C(=O)c3cc(C)ccc3-n3nccn3)nc2c1 [Ex. 1.7],5,93
Cc1c(Cl)ccc2[nH]c([C@]3(C)CCCN3C(=O)c3cc(C(F)(F)F)ccc3-n3nccn3)nc12 [Ex. 5.40],91,44
CSc1ccc2nc([C@@H]3CCCN3C(=O)c3cc(F)ccc3-n3nccn3)[nH]c2c1 [Ex. 1.147],24,685
"Cc1ccc(-n2nccn2)c(C(=O)N2C[C@@H](F)C[C@H]2c2nc3ccc(Cl)c(C)c3[nH]2)c1 [Example 2.1, ((2S,4S)-2-(6-chloro-7-methyl-1H-benzo[d]imidazol-2-yl)-4-fluoropyrrolidin-1-yl)(5-methyl-2-(2H-1,2,3-triazol-2-yl)phenyl)methanone]",53,56
CO[C@H]1CN(C(=O)c2ccccc2-n2nccn2)C(C)(c2nc3c(C)c(Cl)ccc3[nH]2)C1 (stereo partly shown) [Ex. 3.45],19,16
Cc1ccc(-c2ccccc2)c(C(=O)N2CC[C@H](C)[C@H]2c2nc3cc(Cl)c(C)cc3[nH]2)c1 [Ex. 4.116],198,6
CSc1cccc2nc([C@@H]3CCCN3C(=O)c3nc(C)sc3-c3ccc(C)cc3)[nH]c12 [Ex. 1.66],47,20
Cc1ccc(C(=O)N2CC[C@H](C)[C@H]2c2nc3cc(Cl)c(C)cc3[nH]2)c(-c2ncccn2)c1 [Ex. 4.130],128,11
CSc1cccc2nc([C@@H]3CCCN3C(=O)c3c(C)cccc3-n3nccn3)[nH]c12 [Ex. 1.170],20,258
Cc1ccc(-c2nc(C)sc2C(=O)N2CC[C@H](C)[C@H]2c2nc3cc(C)c(C)cc3[nH]2)cc1 [Ex. 4.88],182,11
Cc1ccc(-n2nccn2)c(C(=O)N2CCC[C@@]2(C)c2nc3cc(OC(F)(F)F)ccc3[nH]2)c1 [Ex. 5.20],161,19
Cc1ccc(-c2sccc2C(=O)N2CC[C@H](C)[C@H]2c2nc3cc(C(F)(F)F)ccc3[nH]2)cc1C [Ex. 4.144],463,9
COc1cc(C(=O)N2CCC[C@@]2(C)c2nc3c(C)c(Cl)ccc3[nH]2)c(-n2nccn2)cc1OC [Ex. 5.39],20,36

# Further lines, results first:
IC50 (human orexin-2 receptor) [nM],IC50 (human orexin-1 receptor) [nM],SMILES
1,1,Cc1ccc(-n2nccn2)c(C(=O)N2CCC[C@@]2(C)c2nc3c(C)c(C)c(Br)cc3[nH]2)c1 [Ex. 5.266]
1,3,C=C1C[C@@H](c2nc3c(C)c(Cl)ccc3[nH]2)N(C(=O)c2nc(C)sc2-c2ccc(C)c(C)c2)C1 [Ex. 6.54]
1,4,C=C1C[C@@H](c2nc3c(C)cccc3[nH]2)N(C(=O)c2nc(C)sc2-c2ccc(C)c(C)c2)C1 [Ex. 6.53]
61,59,Cc1ccc(-c2ccc(C)cc2C(=O)N2CCC[C@@]2(C)c2nc3cc(C(F)(F)F)c(Cl)cc3[nH]2)cc1 [Ex. 5.154]
21,7,Cc1c(Cl)ccc2[nH]c([C@]3(C)CCCN3C(=O)c3cc(F)ccc3-c3ncccn3)nc12 [Ex. 5.224]
1200,414,COc1cc2nc([C@]3(C)CCCN3C(=O)c3c(-n4nccn4)ccc(OC)c3F)[nH]c2cc1OC [Ex. 5.69]
249,98,Cc1c(Cl)ccc2nc([C@]3(C)CCCN3C(=O)c3cc(F)ccc3-c3cccnc3)[nH]c12 [Ex. 5.220]
26,48,Cc1ccc(-c2ccccc2C(=O)N2CCC[C@@]2(C)c2nc3c(C)c(C)ccc3[nH]2)cc1 [Ex. 5.120]
10,58,C=C1C[C@@H](c2nc3cc(C)c(C)cc3[nH]2)N(C(=O)c2cc(OC)c(OC)cc2-n2nccn2)C1 [Ex. 6.200]
294,120,Cc1ccc(-c2ccccc2C)c(C(=O)N2CCC[C@@]2(C)c2nc3cc(C(F)(F)F)ccc3[nH]2)c1 [Ex. 5.186]
34,18,Cc1ccc(-c2ccc3c(c2)OCO3)c(C(=O)N2CCC[C@@]2(C)c2nc3cc(C(F)(F)F)ccc3[nH]2)c1 [Ex. 5.198]
473,232,COc1cc2nc([C@]3(C)CCCN3C(=O)c3cncnc3-c3ccccc3)[nH]c2cc1OC [Ex. 5.90]
4,765,C=C1C[C@@H](c2nc3ccc(OC)cc3[nH]2)N(C(=O)c2cc(Cl)ccc2-n2nccn2)C1 [Ex. 6.136]
69,420,C=C1C[C@@H](c2nc3cc(C)c(C)cc3n2C)N(C(=O)c2cc(C)ccc2-n2nccn2)C1 [Ex. 7.2]
12,59,C=C1C[C@@H](c2nc3cc(C)c(C)cc3[nH]2)N(C(=O)c2c(-n3nccn3)ccc(C)c2F)C1 [Ex. 6.196]
2,57,C=C1C[C@@H](c2nc3cc(C(C)(C)C)ccc3[nH]2)N(C(=O)c2cc(C)ccc2-n2nccn2)C1 [Ex. 6.66]
6,10,Cc1nc(C(=O)N2CCC[C@@]2(C)c2nc3c(C)cccc3[nH]2)c(-c2cccc(Cl)c2)s1 [Ex. 5.4]
21,70,C=C1CN(C(=O)c2cc(Cl)ccc2-n2nccn2)C(C)(c2nc3cc(OC)ccc3[nH]2)C1 (stereo not shown) [Ex. 6.157]
14,13,COc1cccc(-c2ccc(C)cc2C(=O)N2CCC[C@@]2(C)c2nc3c(C)c(C)ccc3[nH]2)c1 [Ex. 5.110]
18,58,C=C1C[C@@H](c2nc3cc(Cl)c(C(F)(F)F)cc3[nH]2)N(C(=O)c2cc(F)ccc2-n2nccn2)C1 [Ex. 6.176]
12,9,Cc1ccc(-c2cccc(F)c2)c(C(=O)N2CCC[C@@]2(C)c2nc3cc(C)c(C)cc3n2C)c1 [Ex. 7.30]
284,53,Cc1nc(C(=O)N2CCC[C@@]2(C)c2nc3ccc(F)c(F)c3[nH]2)c(-c2ccc(F)cc2)s1 [Ex. 5.208]
126,84,COc1cc(C(=O)N2CCC[C@@]2(C)c2nc3cc(F)c(Br)cc3[nH]2)c(-n2nccn2)cc1OC [Ex. 5.125]
53,38,COc1cccc(C#Cc2ccccc2C(=O)N2CCC[C@@]2(C)c2nc3c(C)cc(Br)cc3[nH]2)c1 [Ex. 5.249]
42,33,CCn1c([C@]2(C)CCCN2C(=O)c2cc(C)ccc2-n2nccn2)nc2cc(OC)c(OC)cc21 [Ex. 7.10]
740,44,COc1ccc(OC)c2[nH]c([C@]3(C)CCCN3C(=O)c3cc(C)ccc3-n3nccn3)nc12 [Ex. 5.31]
50,23,CCn1c([C@]2(C)CCCN2C(=O)c2cc(C)c(C)cc2-n2nccn2)nc2cc(OC)c(OC)cc21 [Ex. 7.14]
72,31,COc1cc2nc([C@]3(C)CCCN3C(=O)c3nc(C)sc3-c3ccc(F)cc3)[nH]c2cc1OC [Ex. 5.78]
